{"source": "patent US20050175550A1", "about": "“Compositions for oral use” (priority 2000, published 2005)", "assay_type_in_all_cases": "cell-based", "key": {"[1]": {"tested_on": "Streptococcus pneumoniae ATCC6302", "test": "MIC by agar plate dilution method on standard strains (Example 3)", "method": "(§1) Drug solutions at a concentration 10 times as high as the maximum applicable concentration were prepared as original solutions of test drugs given in Table 2 (as to solvents used for this purpose, reference should be made also to Table 2). Serial two-fold dilution series of the original solutions were prepared at desired stages, and 1 ml each of the diluted drug solutions was added to 9 ml of media given in Table 3 to prepare drug plates. […] • 1) Bacterial solutions stocked at −80° C. were inoculated on agar media (as to media used, reference should be made to Table 3), and then incubated at 37° C. overnight. When desired, subculturing was conducted once more on the same agar media (by overnight incubation at 37° C.). • 2) Colonies growing on the agar media were sampled by a platinum loop, suspended in liquid media (reference should be made to Table 3) and statically incubated at 37° C. for 18 hours (preculturing). • 3) Preculturing was continued up to McFarland 0.5 (McFarland 0.5=about 10^8 CFU/ml), and then the culture broths were diluted with Muellar Hinton Broth to make 10^6 CFU/ml. 5 μl each of the diluted solutions were inoculated on the above-mentioned drug plates by an inoculator Microplanter. […] Thus, bacterial solutions at about 10^8 CFU/ml can be easily prepared by use of McFarland 0.5. Bacterial solutions at such a turbidity are commercially available, but can be easily prepared."}, "[2]": {"tested_on": "Haemophilus influenzae ATCC49766", "test": "MIC by agar plate dilution method on standard strains (Example 3)", "method": "as §1"}, "[3]": {"tested_on": "Micrococcus luteus ATCC9341", "test": "MIC by agar plate dilution method on standard strains (Example 3)", "method": "as §1"}, "[4]": {"tested_on": "Haemophilus influenzae ATCC33533", "test": "MIC by agar plate dilution method on standard strains (Example 3)", "method": "as §1"}, "[5]": {"tested_on": "Staphylococcus aureus ATCC29247", "test": "MIC by agar plate dilution method on standard strains (Example 3)", "method": "as §1"}, "[6]": {"tested_on": "Klebsiella pneumoniae ATCC700603", "test": "MIC by agar plate dilution method on standard strains (Example 3)", "method": "as §1"}, "[7]": {"tested_on": "Bacillus subtilis ATCC6633", "test": "MIC by agar plate dilution method on standard strains (Example 3)", "method": "as §1"}, "[8]": {"tested_on": "Moraxella (Branhamella) catarrhalis ATCC25238", "test": "MIC by agar plate dilution method on standard strains (Example 3)", "method": "as §1"}, "[9]": {"tested_on": "Staphylococcus aureus ATCC6538P", "test": "MIC by agar plate dilution method on standard strains (Example 3)", "method": "as §1"}, "[10]": {"tested_on": "Streptococcus pneumoniae ATCC6301", "test": "MIC by agar plate dilution method on standard strains (Example 3)", "method": "as §1"}, "[11]": {"tested_on": "Streptococcus pneumoniae ATCC6306", "test": "MIC by agar plate dilution method on standard strains (Example 3)", "method": "as §1"}, "[12]": {"tested_on": "Moraxella (Branhamella) catarrhalis ATCC43617", "test": "MIC by agar plate dilution method on standard strains (Example 3)", "method": "as §1"}, "[13]": {"tested_on": "Serratia marcescens ATCC13880", "test": "MIC by agar plate dilution method on standard strains (Example 3)", "method": "as §1"}, "[14]": {"tested_on": "Haemophilus influenzae ATCC49247", "test": "MIC by agar plate dilution method on standard strains (Example 3)", "method": "as §1"}, "[15]": {"tested_on": "Streptococcus pyogenes ATCC12344", "test": "MIC by agar plate dilution method on standard strains (Example 3)", "method": "as §1"}, "[16]": {"tested_on": "Streptococcus pyogenes ATCC12385", "test": "MIC by agar plate dilution method on standard strains (Example 3)", "method": "as §1"}, "[17]": {"tested_on": "Moraxella (Branhamella) catarrhalis ATCC25240", "test": "MIC by agar plate dilution method on standard strains (Example 3)", "method": "as §1"}, "[18]": {"tested_on": "Streptococcus pyogenes ATCC12353", "test": "MIC by agar plate dilution method on standard strains (Example 3)", "method": "as §1"}, "[19]": {"tested_on": "Escherichia coli ATCC25922", "test": "MIC by agar plate dilution method on standard strains (Example 3)", "method": "as §1"}, "[20]": {"tested_on": "Enterococcus faecalis ATCC29247", "test": "MIC by agar plate dilution method on standard strains (Example 3)", "method": "as §1"}, "[21]": {"tested_on": "Pseudomonas aeruginosa ATCC27853", "test": "MIC by agar plate dilution method on standard strains (Example 3)", "method": "as §1"}, "[22]": {"tested_on": "Streptococcus pneumoniae ATCC49619", "test": "MIC by agar plate dilution method on standard strains (Example 3)", "method": "as §1"}, "[23]": {"tested_on": "Enterococcus faecium ATCC19434", "test": "MIC by agar plate dilution method on standard strains (Example 3)", "method": "as §1"}, "[24]": {"tested_on": "Streptococcus agalactiae ATCC13813", "test": "MIC by agar plate dilution method on standard strains (Example 3)", "method": "as §1"}, "[25]": {"tested_on": "Escherichia coli ATCC35218", "test": "MIC by agar plate dilution method on standard strains (Example 3)", "method": "as §1"}, "[26]": {"tested_on": "Haemophilus influenzae ATCC33391", "test": "MIC by agar plate dilution method on standard strains (Example 3)", "method": "as §1"}, "[27]": {"tested_on": "Streptococcus pneumoniae ATCC6303", "test": "MIC by agar plate dilution method on standard strains (Example 3)", "method": "as §1"}, "[28]": {"tested_on": "Streptococcus sobrinus MT8246", "test": "Minimum growth-inhibiting concentration on agar media (Example 2)", "settings": "S. sobrinus MT8246; Brain Heart Infusion, 5% CO2", "method": "(§2) 3 ml of GAM broth (Nissui Medical) containing 5 μg/ml of hemin and 1 μg/ml of menadione was separately inoculated with one platinum loop each of subcultures of causative bacteria of periodontal disease, strains Porphyromonas gingivalis W83, W50, ATCC49417 and ATCC33277, strain Actinobacillus actinomycetemcomitans Y4, and strains Fusobacterium nucleatum ATCC10953 and ATCC25586, followed by incubation at 37° C. under anaerobic conditions (10% CO2, 10% H2 and 80% N2) overnight. Then, the resulting cultures were diluted to 10^−8, 10^−6, 10^−4 and 10^−3 to make inoculating bacterial solutions, respectively.\n(§3) Agar media containing 400, 200, 100, 50, 25, 10 and 5 μg/ml of TFM, respectively, were prepared and streaked, about 2 cm long, with a platinum loop each of the above-prepared inoculating bacterial solutions, followed by incubation under the same anaerobic conditions as above at 37° C. for 48-72 hours to evaluate growth of the bacteria.\n(§4) Streptococcus sobrinus MT8246, Streptococcus sanuis ST160, Streptococcus mutans Xc and Streptococcus salivarius HHT were likewise incubated in Brain Heart Infusion (Difco) in the same manner as above except that the incubation was conducted in the presence of 5% CO2 to evaluate the growth."}, "[29]": {"tested_on": "Streptococcus salivarius HHT", "test": "Minimum growth-inhibiting concentration on agar media (Example 2)", "settings": "S. salivarius HHT; Brain Heart Infusion, 5% CO2", "method": "as §2, §3, §4"}, "[30]": {"tested_on": "S. sanguis ST160", "test": "Minimum growth-inhibiting concentration on agar media (Example 2)", "settings": "Brain Heart Infusion, 5% CO2", "method": "as §2, §3, §4"}}, "data": [{"smiles": "N[C@@H](CCSC(F)(F)F)C(=O)O", "note": "[TFM, Trifluoromethionine]", "values": [{"measurement": "MIC", "setting": "[1]", "result": ">400", "unit": "µg/mL"}, {"measurement": "MIC", "setting": "[2]", "result": 25, "unit": "µg/mL"}, {"measurement": "MIC", "setting": "[3]", "result": ">400", "unit": "µg/mL"}, {"measurement": "MIC", "setting": "[4]", "result": 100, "unit": "µg/mL"}, {"measurement": "MIC", "setting": "[5]", "result": ">400", "unit": "µg/mL"}, {"measurement": "MIC", "setting": "[6]", "result": ">400", "unit": "µg/mL"}, {"measurement": "MIC", "setting": "[7]", "result": ">400", "unit": "µg/mL"}, {"measurement": "MIC", "setting": "[8]", "result": 100, "unit": "µg/mL"}, {"measurement": "MIC", "setting": "[9]", "result": ">400", "unit": "µg/mL"}, {"measurement": "MIC", "setting": "[10]", "result": ">400", "unit": "µg/mL"}, {"measurement": "MIC", "setting": "[11]", "result": ">400", "unit": "µg/mL"}, {"measurement": "MIC", "setting": "[12]", "result": 100, "unit": "µg/mL"}, {"measurement": "MIC", "setting": "[13]", "result": ">400", "unit": "µg/mL"}, {"measurement": "MIC", "setting": "[14]", "result": 50, "unit": "µg/mL"}, {"measurement": "MIC", "setting": "[15]", "result": ">400", "unit": "µg/mL"}, {"measurement": "MIC", "setting": "[16]", "result": ">400", "unit": "µg/mL"}, {"measurement": "MIC", "setting": "[17]", "result": 25, "unit": "µg/mL"}, {"measurement": "MIC", "setting": "[18]", "result": ">400", "unit": "µg/mL"}, {"measurement": "MIC", "setting": "[19]", "result": ">400", "unit": "µg/mL"}, {"measurement": "MIC", "setting": "[20]", "result": ">400", "unit": "µg/mL"}, {"measurement": "MIC", "setting": "[21]", "result": ">400", "unit": "µg/mL"}, {"measurement": "MIC", "setting": "[22]", "result": ">400", "unit": "µg/mL"}, {"measurement": "MIC", "setting": "[23]", "result": ">400", "unit": "µg/mL"}, {"measurement": "MIC", "setting": "[24]", "result": ">400", "unit": "µg/mL"}, {"measurement": "MIC", "setting": "[25]", "result": ">400", "unit": "µg/mL"}, {"measurement": "MIC", "setting": "[26]", "result": 50, "unit": "µg/mL"}, {"measurement": "MIC", "setting": "[27]", "result": ">400", "unit": "µg/mL"}, {"measurement": "Minimum growth-inhibiting concentration", "setting": "[28]", "result": ">400", "unit": "µg/mL"}, {"measurement": "Minimum growth-inhibiting concentration", "setting": "[29]", "result": ">400", "unit": "µg/mL"}, {"measurement": "Minimum growth-inhibiting concentration", "setting": "[30]", "result": ">400", "unit": "µg/mL"}]}]}
